# Data from patent US20070072954A1, “Novel tetraoxaspiroalkanes and methods of use with organosilicon monomers in polyerizable compositions” (Curators of the University of Missouri, priority 2005, published 2007).
# Marks after values point to notes of the source that are not given here.
# Legend:
# [1] = Oxaspirocyclic ring opening via 13C-NMR; assay type: physicochemical; details: 20 min visible light irradiation with PI system
# Experimental: NMR Studies: NMR spectra were acquired using a Bruker Advance Ultrashield FT-NMR spectrometer. A reaction mixture consisting of 6 (DEBTMSPOM-1,5,7,11-TOSU) and the PI system was heated to 55-60° C. to liquefy and then allowed to cool to room temperature. A 300 mg sample was transferred to an 8 mm I.D.×8 mm H cylindrical glass mold and irradiated for 20 min (3 mm; 500 mW/cm^2) using a 3M XL 2500 lamp. A small amount was transferred to an NMR tube, taken up in CDCl3 and the ^13C-NMR spectrum was acquired and compared to the pre-irradiation spectrum. The residual irradiated material was stored in the dark for 24 hr, resampled, and the NMR spectrum acquired and compared to the pre- and post-irradiation spectra.
# [2] = Photopolymerization stress measurement (tensilometer); assay type: physicochemical
# Experimental: In this example, the photopolymerization stress of the monomers of the present invention was investigated. Stress generated during photopolymerization was measured (n=3) using an electromagnetic mechanical testing machine (Enduratec Model 3200, Bose Corp., Minnetonka, Minn.) adapted to be a tensilometer. See Feilzer et al., Dent. Mater. […] Briefly, two identical glass rods, 5 mm in diameter, were placed opposing one another and separated by 1 mm (C-factor=2.5). A displacement transducer (LVDT, Enduratec, 0.1 μm resolution, range ±1 mm) was mounted on one glass rod and was touching a plate attached to the opposing glass rod. The distance between the mounts on the opposing glass rods was about 9 mm (including the 1 mm separation between the rods). Samples placed between the glass rods were cured by irradiation (500 mW/cm^2), while under LVDT displacement control. Load-displacement data were collected at 200 Hz for 30 mins. […] From the load-displacement data, peak loads were obtained and normalized by the original area to obtain the polymerization stresses.
# [3] = Oxirane ring-opening (oxirane conversion) via FTIR; assay type: physicochemical; details: thin film, 10 min irradiation
# Experimental: In this example, the oxirane ring-opening of monomers 1 (DEBAOM-1,5,7,11-TOSU) or 6 (DEBTMSPOM-1,5,7,11-TOSU) was investigated using FTIR. All FTIR spectra were acquired using a Perkin-Elmer BX II FTIR spectrophotometer. The identification of the location of the oxirane absorption band in the IR spectrum of Siloranes was achieved by methanolysis. A sample was dissolved in CH2Cl2 and exposed to CH30H in the presence of a catalytic amount of zinc tetrafluoroborate hydrate overnight. The mixture was evaporated onto a salt plate. An FTIR spectrum was acquired and compared to pre-exposure spectrum. There was a significant decrease in the oxirane absorption region at 882-886 cm^−1. This band was selected as the absorption to monitor for following the oxirane ring-opening reaction.
# Analytical samples contained siloranes I, II, or SIL-MIX with and without 50 mol % of monomer 1 (DEBAOM-1,5,7,11-TOSU) or 6 (DEBTMSPOM-1,5,7,11-TOSU). A thin film was brushed onto a salt plate. Irradiation (10 minutes at 23 to 25° C. and R. H.=40-45%) was provided by a 3M XL2500 curing light positioned 1-cm above the sample surface. The light intensity was measured at 360 mW/cm^2 on the sample surface. The oxirane band absorption and an internal reference band absorption were assessed before and after irradiation. Oxirane conversion (alpha) was calculated according to equation (1) by Pan et al., Polym Int 2000, 49, 74. [formula] where subscripts 0 and t represent pre-irradiation and post-irradiation respectively.
# [4] = Mechanical properties measurement (3-point bend tests); assay type: physicochemical
# Experimental: In this example, the elastic modulus, ultimate strength, and work of fracture were determined for the monomers of the present invention. […] The resin was injected into the mold and cured by irradiation (500 mW/cm^2) followed by storage in the dark for 4 hours and 24 hours before mechanical tests were conducted. Three point bending tests were conducted using an electromagnetic mechanical testing machine (Enduratec Model 3200) with a 20-mm span and at a crosshead displacement rate of 0.5mm/ min at room temperature (25° C.). Load-displacement data were collected at 100 Hz. […] Flexural ultimate strength was determined from the peak loads and work of fracture was determined from the area under the stress-strain curve.
# [5] = 4-hour Post Cure, 10 mol % TOSU in SIL-MIX
# [6] = 4-hour Post Cure, 25 mol % TOSU in SIL-MIX
# [7] = 24-hour Post Cure, 10 mol % TOSU in SIL-MIX
# [8] = 24-hour Post Cure, 25 mol % TOSU in SIL-MIX
smiles,measurement,setting,value
"CCC1(COCCC[Si](C)(C)C)COC2(OC1)OCC(CC)(COCCC[Si](C)(C)C)CO2 (centres unmarked) [Monomer 6, 3,9-diethyl-3,9-bis(3-trimethylsilylpropyloxymethyl)-1,5,7,11-tetraoxaspiro[5.5]undecane]",changes in 13C-NMR spectrum (oxaspirocyclic ring opening),[1]; 0 hour dark cure,No significant changes
same,changes in 13C-NMR spectrum (oxaspirocyclic ring opening),[1]; 24 hour dark cure,consistent with oxaspirocyclic ring opening to form oligomeric carbonate species
same,polymerization stress values less than SIL-MIX alone,[2]; 10 mol % TOSU,80%
same,polymerization stress values less than SIL-MIX alone,[2]; 25 mol % TOSU,96%
same,Photopolymerization stress,[2]; SIL-MIX/6 75/25 mol/mol,0.3(0.1) N/mm^2
same,Photopolymerization stress,[2]; SIL-MIX/6 90/10 mol/mol,2.1(0.2) N/mm^2
same,Oxirane Conversion,[3]; comonomer 50 mol % in PH-SIL (I),22%
same,Oxirane Conversion,[3]; comonomer 50 mol % in SIL-MIX,22%
same,Oxirane Conversion,[3]; comonomer 50 mol % in TET-SIL (II),3%
same,melting point,,44.27 °C
same,Flexural elastic modulus,"[4]; 4-h Post Cure, 10 mol % TOSU in SIL-MIX",1.61 (0.17)^a GPa
same,Flexural elastic modulus,"[4]; 4-h Post Cure, 25 mol % TOSU in SIL-MIX",1.33 (0.18)^a GPa
same,Flexural strength,[4]; [5],"58.77 (19.08)^a,b MPa"
same,Work of Fracture,[4]; [5],2.67 (1.25)^a kJ/m^2
same,Flexural strength,[4]; [6],30.90 (11.36)^a MPa
same,Work of Fracture,[4]; [6],0.73 (0.38)^a kJ/m^2
same,24-hour modulus values as % of those for SIL-MIX alone,[4]; 10 mol % TOSU,77%
same,24-hour strength values as % of those for SIL-MIX alone,[4]; 10 mol % TOSU,84%
same,24-hour work of fracture values as % of those for SIL-MIX alone,[4]; 10 mol % TOSU,100%
same,24-hour strength values as % of those for SIL-MIX alone,"[4]; 10 mol % TOSU, listed as TOSU",85%
same,Flexural elastic modulus,"[4]; 24-h Post Cure, 10 mol % TOSU in SIL-MIX",2.41 (0.24)^b GPa
same,Flexural elastic modulus,"[4]; 24-h Post Cure, 25 mol % TOSU in SIL-MIX",1.87 (0.06)^a GPa
same,Flexural strength,[4]; [7],"76.90 (10.19)^a,b MPa"
same,Work of Fracture,[4]; [7],"3.07 (0.81)^a,b kJ/m^2"
same,Flexural strength,[4]; [8],56.63 (11.11)^a MPa
same,Work of Fracture,[4]; [8],1.80 (0.87)^a kJ/m^2
same,24-hour modulus values as % of those for SIL-MIX alone,[4]; 25 mol % TOSU,60%
same,24-hour strength values as % of those for SIL-MIX alone,[4]; 25 mol % TOSU,60%
same,24-hour work of fracture values as % of those for SIL-MIX alone,[4]; 25 mol % TOSU,66%
